In patent US8987449B2, “Medicine for treating ischemic brain injury and its sequelae, and preparation method thereof” (Haimin Lei, priority 2011, dated 2015):

Columns and labels:
Assay type in all cases: in vivo, rat
[1] = test system: MCAO rats; experiment: Beam walking test of MCAO rats; settings: 0-6 points; for beam walking Evaluation (3 d): model group 1.47 ± 0.84; for beam walking Evaluation (7 d): model group 1.92 ± 2.02
Excerpt: 140 healthy SD male rats, weighing 280-300 g, provided by Beijing Vital River Laboratories, certificate No.: SCXK (Jing) 2002-2003. The method of [Koizumi J, Yoshida […]. Experimental studies of ischemia brain edema, I: A new experimental model of cerebral embolism in rats in which recirculation can be introduced in the ischemic area[J]. […] After the rats were anesthetized and the skin thereof was disinfected by ethanol. By cutting right in the middle of the neck, the right common carotid artery, internal carotid artery and external carotid artery were separated and the common carotid artery and external carotid artery were ligated. The internal carotid artery was clamped with a bulldog clamp. A cut was made at the crotch of the external carotid artery and the internal carotid artery followed by releasing the bulldog clamp. […] Next, the external carotid artery was ligated and the nylon wire was fixed. In sham operation group, the right common carotid artery, the external carotid artery and the internal carotid artery were only exposed and separated. The rats were routinely raised in different cages. 0.5 ml penicillin was continuously injected into every mouse for three days after the surgery. […] The rats getting 1-3 point were selected for the subsequent experiment. The MCAO rats having the same point were distributed randomly and averagely to each experimental group. […] Beam walking test was used to evaluate the motor coordination and the integration defect after the cerebral ischemia damage. […] There was a dark box attached to one end of the beam and the rats were stimulated by noise to walk through the beam into the dark box. […] The rats were trained before the ischemia for 5 days until all the rats can get 6 point. The third and the seventh days after administration was set as the observation time to carry out the test. The SPSS 11.0 software pack was used to carry out the statistical analysis of all the data. The comparison of the enumeration data was carried out with X^2 test P<0.05 had statistical meaning.

[2] = test system: MCAO rats; experiment: Tactile stimulus experiment (time of MCAO rats removing the tape); settings: for time of removing the tape, Evaluation (3 d): model group 244.29 ± 95.46; for time of removing the tape, Evaluation (7 d): model group 221.53 ± 105.33
Excerpt: 140 healthy SD male rats, weighing 280-300 g, provided by Beijing Vital River Laboratories, certificate No.: SCXK (Jing) 2002-2003. The method of [Koizumi J, Yoshida […]. Experimental studies of ischemia brain edema, I: A new experimental model of cerebral embolism in rats in which recirculation can be introduced in the ischemic area[J]. […] After the rats were anesthetized and the skin thereof was disinfected by ethanol. By cutting right in the middle of the neck, the right common carotid artery, internal carotid artery and external carotid artery were separated and the common carotid artery and external carotid artery were ligated. The internal carotid artery was clamped with a bulldog clamp. A cut was made at the crotch of the external carotid artery and the internal carotid artery followed by releasing the bulldog clamp. […] Next, the external carotid artery was ligated and the nylon wire was fixed. In sham operation group, the right common carotid artery, the external carotid artery and the internal carotid artery were only exposed and separated. The rats were routinely raised in different cages. 0.5 ml penicillin was continuously injected into every mouse for three days after the surgery. […] The rats getting 1-3 point were selected for the subsequent experiment. The MCAO rats having the same point were distributed randomly and averagely to each experimental group. […] Evaluated was the executive function change of side forelimb sense and fine motor movement after the cerebral ischemia. […] The third and the seventh days after the administration were set as the observation time to carry out the test. The SPSS 11.0 software pack was used to carry out the statistical analysis of all the data. The comparison of the enumeration data was carried out with X^2 test P<0.05 had statistical meaning.

[3] = test system: MCAO rats; experiment: Grip strength test of the forelimb of MCAO rats; settings: for Grip value (g) (3 d): model group 317.01 ± 53.81; for Grip value (g) (7 d): model group 285.58 ± 80.02
Excerpt: 140 healthy SD male rats, weighing 280-300 g, provided by Beijing Vital River Laboratories, certificate No.: SCXK (Jing) 2002-2003. Nylon fishing wire, diameter 0.25 mm, German; YLS-13A, grip strength meter for mice and rats, Shandong Science Technology Instrument Station. The method of [Koizumi J, Yoshida […]. Experimental studies of ischemia brain edema, I: A new experimental model of cerebral embolism in rats in which recirculation can be introduced in the ischemic area[J]. […] After the rats were anesthetized and the skin thereof was disinfected by ethanol. By cutting right in the middle of the neck, the right common carotid artery, internal carotid artery and external carotid artery were separated and the common carotid artery and external carotid artery were ligated. The internal carotid artery was clamped with a bulldog clamp. A cut was made at the crotch of the external carotid artery and the internal carotid artery followed by releasing the bulldog clamp. […] Next, the external carotid artery was ligated and the nylon wire was fixed. In sham operation group, the right common carotid artery, the external carotid artery and the internal carotid artery were only exposed and separated. The rats were routinely raised in different cages. 0.5 ml penicillin was continuously injected into every mouse for three days after the surgery. […] The rats getting 1-3 point were selected for the subsequent experiment. The MCAO rats having the same point were distributed randomly and averagely to each experimental group. […] Evaluated was the change of the grip strength of the forelimb after the cerebral ischemia. A rat was put onto the pulling board making the forepaws thereof grab the cross bar. Then the tester pulled the rat backward to make its body slide backward along the board until the release of the forepaws (during this process it was made sure that the waist of the rat carried no force). The biggest grip strength was read when the forepaws released. Test was carried out twice for every rat and the bigger value was taken. The third and the seventh days after the administration were as the observation time to carry out the test. The SPSS 11.0 software pack was used to carry out the statistical analysis of all the data. The comparison of the enumeration data was carried out with X^2 test P<0.05 had statistical meaning.

[4] = 60 mg/kg intragastrically once a day
[5] = 120 mg/kg intragastrically once a day

SMILES: COc1cc(C(=O)OCc2nc(C)c(C)nc2C)ccc1OCc1nc(C)c(C)nc1C [LQC-T4, (3,5,6-trimethylpyrazine-2-yl)methyl 3-methoxy-4-((3,5,6-trimethylpyrazine-2-yl)methoxy) benzoate]
- beam walking Evaluation (3 d) [1, 4]: 3.6 ± 1.76
- beam walking Evaluation (7 d) [1, 4]: 3.83 ± 1.70
- beam walking Evaluation (3 d) [1, 5]: 2.88 ± 1.62
- beam walking Evaluation (7 d) [1, 5]: 3.20 ± 1.66
- time of removing the tape, Evaluation (3 d) [2, 4]: 181.31 ± 133.40 s
- time of removing the tape, Evaluation (7 d) [2, 4]: 175.80 ± 139.06 s
- time of removing the tape, Evaluation (3 d) [2, 5]: 222.64 ± 104.45 s
- time of removing the tape, Evaluation (7 d) [2, 5]: 245.95 ± 98.23 s
- Grip value (g) (3 d) [3, 4]: 395.50 ± 16.88 g
- Grip value (g) (7 d) [3, 4]: 468.81 ± 78.14 g
- Grip value (g) (3 d) [3, 5]: 386.57 ± 42.35 g
- Grip value (g) (7 d) [3, 5]: 421.68 ± 59.87 g

SMILES: COCCOC(=O)C1=C(C)NC(C)=C(C(=O)OC(C)C)C1c1cccc([N+](=O)[O-])c1 (stereo not drawn) [Nimodipine, reference compound]
- beam walking Evaluation (3 d) ([1]; 30 mg/kg once a day): 2.71 ± 1.49
- beam walking Evaluation (7 d) ([1]; 30 mg/kg once a day): 3.50 ± 1.71
- time of removing the tape, Evaluation (3 d) ([2]; 30 mg/kg once a day): 211.13 ± 116.65 s
- time of removing the tape, Evaluation (7 d) ([2]; 30 mg/kg once a day): 183.93 ± 124.50 s
- Grip value (g) (3 d) ([3]; 30 mg/kg once a day): 409.08 ± 65.13 g
- Grip value (g) (7 d) ([3]; 30 mg/kg once a day): 393.08 ± 59.61 g

SMILES: Cc1nc(C)c(C)nc1C [TMP, tetramethylpyrazine, reference compound]
- beam walking Evaluation (3 d) ([1]; 37 mg/kg once a day): 2.86 ± 1.79
- beam walking Evaluation (7 d) ([1]; 37 mg/kg once a day): 2.40 ± 2.32
- time of removing the tape, Evaluation (3 d) ([2]; 37 mg/kg once a day): 200.43 ± 117.81 s
- time of removing the tape, Evaluation (7 d) ([2]; 37 mg/kg once a day): 211.35 ± 111.15 s
- Grip value (g) (3 d) ([3]; 37 mg/kg once a day): 415.19 ± 26.81 g
- Grip value (g) (7 d) ([3]; 37 mg/kg once a day): 434.22 ± 50.23 g
